Measured values reported in patent US20090215857A1 (Pfizer Products Inc., priority 2005, published 2009).
Structures can show the parent of a compound that is named as a salt.

Experiments:
[1] = target: T1, human serotonin transporter (Homo sapiens, UniProt P31645); test: hSERT receptor binding ([125I]-RTI-55 radioligand); details: membranes of HEK-293 cells transfected with human serotonin transporter cDNA; 50 pM [125I]-RTI-55; IC50 converted by Cheng-Prusoff; read-out: SERT Ki
T1 construct: expressed in transfected cells; host or cells: HEK-293
T1 sequence (P31645 whole entry): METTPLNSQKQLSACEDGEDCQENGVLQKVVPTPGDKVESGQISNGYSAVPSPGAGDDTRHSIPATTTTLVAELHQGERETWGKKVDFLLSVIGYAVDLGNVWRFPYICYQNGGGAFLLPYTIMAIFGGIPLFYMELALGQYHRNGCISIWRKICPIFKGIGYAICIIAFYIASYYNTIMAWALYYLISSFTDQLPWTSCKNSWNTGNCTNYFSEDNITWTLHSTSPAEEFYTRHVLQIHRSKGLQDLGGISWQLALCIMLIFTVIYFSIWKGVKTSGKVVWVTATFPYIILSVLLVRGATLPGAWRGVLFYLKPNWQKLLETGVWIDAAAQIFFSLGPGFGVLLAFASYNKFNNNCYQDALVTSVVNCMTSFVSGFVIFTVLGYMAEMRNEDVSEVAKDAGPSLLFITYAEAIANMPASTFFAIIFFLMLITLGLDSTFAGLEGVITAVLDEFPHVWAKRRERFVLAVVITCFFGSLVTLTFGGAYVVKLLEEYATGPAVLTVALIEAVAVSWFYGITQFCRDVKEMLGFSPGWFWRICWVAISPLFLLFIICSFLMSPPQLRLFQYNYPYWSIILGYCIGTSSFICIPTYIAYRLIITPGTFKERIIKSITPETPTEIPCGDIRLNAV
In short: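 HEK-293 membranes expressing transfected human transporter were incubated with 50 pM [125I]-RTI-55 and test compound (10^−5 to 10^−12 M) in Krebs-HEPES pH 7.4 for 90 min at RT.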

[2] = target: T2, human norepinephrine transporter (Homo sapiens, UniProt P23975); test: hNET receptor binding ([125I]-RTI-55 radioligand); details: membranes of HEK-293 cells transfected with human norepinephrine transporter cDNA; 50 pM [125I]-RTI-55; IC50 converted by Cheng-Prusoff; read-out: NET Ki
T2 construct: expressed in transfected cells; host or cells: HEK-293
T2 sequence (P23975 whole entry): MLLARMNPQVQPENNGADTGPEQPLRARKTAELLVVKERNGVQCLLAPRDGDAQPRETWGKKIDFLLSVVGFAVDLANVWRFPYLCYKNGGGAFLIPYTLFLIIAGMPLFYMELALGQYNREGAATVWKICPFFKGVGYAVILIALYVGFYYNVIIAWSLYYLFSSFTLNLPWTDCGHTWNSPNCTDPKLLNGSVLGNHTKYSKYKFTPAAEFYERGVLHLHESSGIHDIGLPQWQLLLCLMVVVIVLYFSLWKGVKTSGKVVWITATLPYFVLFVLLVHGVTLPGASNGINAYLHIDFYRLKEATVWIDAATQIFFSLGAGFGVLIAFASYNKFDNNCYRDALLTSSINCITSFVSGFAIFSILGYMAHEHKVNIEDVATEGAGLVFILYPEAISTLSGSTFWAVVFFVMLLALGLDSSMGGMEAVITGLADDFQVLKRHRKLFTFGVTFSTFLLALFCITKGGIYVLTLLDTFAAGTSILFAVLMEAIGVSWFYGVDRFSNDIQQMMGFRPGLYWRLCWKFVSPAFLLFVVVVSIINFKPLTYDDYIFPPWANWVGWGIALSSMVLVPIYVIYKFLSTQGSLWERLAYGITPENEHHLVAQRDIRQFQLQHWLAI
In short: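 Membranes from HEK-293 cells expressing human NET were incubated 90 min at room temperature with 50 pM [125I]-RTI-55 and test compound (10^−5M to 10^−12M) in Krebs-HEPES, pH 7.4.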

[3] = target: T3, neuronal α-BGTX-insensitive central nicotinic receptor (Rattus norvegicus, UniProt P09483+P12390); test: [3H]cytisine radioligand binding assay, rat cerebral cortex; details: 10 μM compound; 1.5 nM [3H]cytisine; rat cerebral cortex membrane homogenates; read-out: Percent inhibition at 10 μM of compound (control radioligand specific binding)
T3 construct: Membrane homogenates of cerebral cortex (800 μg protein) are incubated; from tissue; host or cells: rat cerebral cortex membrane homogenates
T3 sequence (P09483 31-630): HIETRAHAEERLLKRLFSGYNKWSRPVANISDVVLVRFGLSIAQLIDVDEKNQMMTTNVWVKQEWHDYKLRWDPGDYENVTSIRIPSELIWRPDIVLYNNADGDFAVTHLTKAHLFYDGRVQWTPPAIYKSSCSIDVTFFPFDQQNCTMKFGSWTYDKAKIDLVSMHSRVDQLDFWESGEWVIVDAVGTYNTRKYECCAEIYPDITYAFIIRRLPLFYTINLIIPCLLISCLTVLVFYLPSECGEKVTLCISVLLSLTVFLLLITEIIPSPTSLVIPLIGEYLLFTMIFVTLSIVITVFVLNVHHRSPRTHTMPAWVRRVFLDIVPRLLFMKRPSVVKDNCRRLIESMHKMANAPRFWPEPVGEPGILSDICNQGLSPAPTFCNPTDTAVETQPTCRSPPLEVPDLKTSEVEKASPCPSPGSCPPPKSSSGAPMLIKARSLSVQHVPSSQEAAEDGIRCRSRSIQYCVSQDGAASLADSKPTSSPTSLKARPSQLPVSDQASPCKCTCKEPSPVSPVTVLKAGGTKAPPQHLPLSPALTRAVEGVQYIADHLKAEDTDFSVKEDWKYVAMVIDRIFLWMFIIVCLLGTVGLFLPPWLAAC
T3 sequence (P12390 25-500): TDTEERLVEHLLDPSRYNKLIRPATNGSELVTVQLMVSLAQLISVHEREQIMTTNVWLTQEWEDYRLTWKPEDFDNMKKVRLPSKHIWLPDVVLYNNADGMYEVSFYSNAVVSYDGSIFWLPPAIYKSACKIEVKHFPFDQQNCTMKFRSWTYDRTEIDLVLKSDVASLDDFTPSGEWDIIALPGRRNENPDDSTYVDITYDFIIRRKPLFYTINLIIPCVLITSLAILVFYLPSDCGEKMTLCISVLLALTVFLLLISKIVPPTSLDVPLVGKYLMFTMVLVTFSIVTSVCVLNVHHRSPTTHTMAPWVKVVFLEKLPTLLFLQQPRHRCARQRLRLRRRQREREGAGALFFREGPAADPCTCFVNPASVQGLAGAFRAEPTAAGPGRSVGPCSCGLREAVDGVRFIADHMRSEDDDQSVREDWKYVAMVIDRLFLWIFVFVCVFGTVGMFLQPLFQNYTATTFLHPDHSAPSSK
Procedure: Several compounds were evaluated for their affinity for the neuronal α-BGTX-insensitive central nicotinic receptor in the rat cerebral cortex determined in a radioligand binding assay.
Experimental protocol Membrane homogenates of cerebral cortex (800 μg protein) are incubated for 75 min at 4° C. with 1.5 nM [^3H]cytisine in the absence or presence of the test compound (10 μM in a buffer containing 50 mM Tris-HCl (pH 7.4), 120 mM NaCl, 5 mM KCl, 1 mM MgCl2 and 2 mM CaCl2.
Nonspecific binding is determined in the presence of 10 μM nicotine.
Following incubation, the samples are filtered rapidly under vacuum through glass fiber filters (Filtermat B, Wallac) presoaked with 0.3% PEI (polyethyleneimine) and rinsed several times with ice-cold 50 mM Tris-HCl using a 48-sample cell harvester (Mach II, Tomtec). The filters are dried then counted for radioactivity in a scintillation counter (Betaplate 1204, Wallac) using a solid scintillator (Meltilex B/HS, Wallac).
The results are expressed as a percent inhibition of the control radioligand specific binding.
The standard reference compound is nicotine, which is tested in each experiment at several concentrations to obtain a competition curve from which its IC50 is calculated.

[4] = tested on: capsaicin-induced mechanical allodynia; test: rat model of capsaicin-induced mechanical allodynia; format: in vivo; details: male Sprague-Dawley rats; 10 mg/kg subcutaneously; PWT 1 hour after single dose; mean of eight animals, normalized for vehicle
Procedure: Compounds of the present invention may be assayed for their ability to alleviate capsaicin-induced mechanical allodynia in a rat (e.g., Sluka (2002) J of Neuroscience, 22(13): 5687-5693). For example, a rat model of capsaicin-induced mechanical allodynia was carried out as follows:
On day 0, male Sprague-Dawley rats (˜150 g) in the dark cycle were placed in suspended wire-bottom cages and allowed to acclimate for 0.5 hour in a darkened, quiet room. The day 0 paw withdrawal threshold (PWT) was determined on the left hind paw by Von Frey hair assessment using the Dixon up and down method. After assessment, the plantar muscle of the right hind paw was injected with 100 μl capsaicin (0.25% (w/v) in 10% ethanol, 10% Tween 80, in sterile saline). On day 6 the PWT of the left hind paw (contralateral from injection site) was determined for each animal. Animals from the day 6 prereads with PWT ≦11.7 g were considered allodynic responders and were regrouped so that each cage had similar mean PWT values. On day 7, responders were dosed subcutaneously with 10 mg compound/kg body weight, or with vehicle alone. The vehicle was phosphate buffered saline containing 2% Cremophor® EL (BASF). The contralateral PWT values were determined at 1 hour after the single dose, with the investigator blinded to the dosing scheme.
For each animal, the day 6 PWT value was subtracted from the 1 hour PWT value to give a delta PWT value that represents the change in PWT due to the 1 hour drug treatment. In addition, the day 6 PWT was subtracted from the day 0 PWT to give the baseline window of allodynia present in each animal.
The mean percent Inhibition of allodynia values (for eight animals assayed for each compound)+/−the standard error of the mean (SEM) are shown in Table 15.

Ki [1] [nM] | Ki [2] [nM] | SMILES | inhibition at 10 µM [3] [%] | % INHIBITION +/− SEM (inhibition of allodynia) [4]
317 | 26.5 | Fc1ccccc1-c1ccccc1CO[C@H]1CCNC1 [Example D-10, (S)-3-(2′-Fluoro-biphenyl-2-ylmethoxy)-pyrrolidine] |  | 
1090 | 650 | Oc1ccccc1-c1ccc(F)cc1CO[C@H]1CCNC1 [Example D-103, (S)-4′-Fluoro-2′-(pyrrolidin-3-yloxymethyl)-biphenyl-2-ol] |  | 
77.1 | 258 | Cc1cccc(-c2ccc(F)cc2CO[C@H]2CCNC2)c1C [Example D-82, (S)-3-(4-Fluoro-2′,3′-dimethyl-biphenyl-2-ylmethoxy)-pyrrolidine] |  | 
356 | 205 | COc1ccccc1-c1ccc(F)cc1CO[C@H]1CCNC1 [Example D-72, (S)-3-(4-Fluoro-2′-methoxy-biphenyl-2-ylmethoxy)-pyrrolidine] |  | 
110 | 21.3 | Cc1ccc(-c2ccccc2CO[C@H]2CCNC2)cc1C [Example D-7, (S)-3-(3′,4′-Dimethyl-biphenyl-2-ylmethoxy)-pyrrolidine] |  | 
1260 | 230 | COc1ccccc1-c1ccccc1CO[C@H]1CCNC1 [Example D-24, (S)-3-(2′-Methoxy-biphenyl-2-ylmethoxy)-pyrrolidine] |  | 
126 | 65.9 | Fc1ccc(-c2ccccc2)c(CO[C@H]2CCNC2)c1 [Example D-66, (S)-3-(4-Fluoro-biphenyl-2-ylmethoxy)-pyrrolidine] |  | 
27.3 | 139 | COc1cccc(-c2ccccc2CO[C@H]2CCNC2)c1 [Example D-22, (S)-3-(3′-Methoxy-biphenyl-2-ylmethoxy)-pyrrolidine] |  | 
≥ 10000 | ≥ 10000 | CCS(=O)(=O)c1ccc(-c2ccc(F)cc2CO[C@H]2CCNC2)cc1 [Example D-109, (S)-3-(4′-Ethanesulfonyl-4-fluoro-biphenyl-2-ylmethoxy)-pyrrolidine] |  | 
28.9 | 526 | Cc1cccc(-c2ccccc2CO[C@H]2CCNC2)c1C [Example D-33, (S)-3-(2′,3′-Dimethyl-biphenyl-2-ylmethoxy)-pyrrolidine] |  | 
457 | 277 | Cc1ccccc1-c1ccccc1CO[C@H]1CCNC1 [Example D-26, (S)-3-(2′-Methyl-biphenyl-2-ylmethoxy)-pyrrolidine] |  | 
30.6 | 87 | FC(F)(F)Oc1cccc(-c2ccccc2CO[C@H]2CCNC2)c1 [Example D-17, (S)-3-(3′-Trifluoromethoxy-biphenyl-2-ylmethoxy)-pyrrolidine] |  | 
201 | ≥ 10000 | FC(F)(F)c1ccc(-c2ccccc2CO[C@H]2CCNC2)cc1 [Example D-55, (S)-3-(4′-Trifluoromethyl-biphenyl-2-ylmethoxy)-pyrrolidine] |  | 
3770 | 763 | N#Cc1cccc(-c2ccc(F)cc2F)c1CO[C@H]1CCNC1 [Example E-2, (S)-2′,4′-Difluoro-2-(pyrrolidin-3-yloxymethyl)-biphenyl-3-carbonitrile fumarate] |  | 
107 | 9630 | Cc1cc(C)n(-c2cccc(-c3ccc(F)cc3CO[C@H]3CCNC3)c2)n1 [Example D-112, (S)-1-[4′-Fluoro-2′-(pyrrolidin-3-yloxymethyl)-biphenyl-3-yl]-3,5-dimethyl-1H-pyrazole] |  | 
≥ 10000 | 4180 | c1ccc(COc2ccccc2-c2ccccc2CO[C@H]2CCNC2)cc1 [Example D-48, (S)-3-(2′-Benzyloxy-biphenyl-2-ylmethoxy)-pyrrolidine] |  | 
59.6 | 585 | Cc1cccc(-c2ccccc2CO[C@H]2CCNC2)c1C [Example D-35, (S)-3-(2′,3′-Dimethyl-biphenyl-2-ylmethoxy)-pyrrolidine] |  | 
155 | 97 | Fc1ccc(-c2ccc(Cl)cc2)c(CO[C@H]2CCNC2)c1 [Example D-111, (S)-3-(4′-Chloro-4-fluoro-biphenyl-2-ylmethoxy)-pyrrolidine] |  | 
1570 | 560 | N#Cc1cccc(-c2cccc(F)c2F)c1CO[C@H]1CCNC1 [Example E-3, (S)-2′,3′-Difluoro-2-(pyrrolidin-3-yloxymethyl)-biphenyl-3-carbonitrile fumarate] |  | 
386 | 3830 | CC(C)Oc1ccc(-c2ccc(F)cc2CO[C@H]2CCNC2)cc1 [Example D-107, (S)-3-(4-Fluoro-4′-isopropoxy-biphenyl-2-ylmethoxy)-pyrrolidine] |  | 
5650 | 1020 | Fc1ccc(-c2ncccc2CO[C@H]2CCNC2)c(F)c1 [Example B-1, (S)-2-(2,4-Difluoro-phenyl)-3-(pyrrolidin-3-yloxymethyl)-pyridine fumarate] |  | 

More lines, now with the values behind:

SMILES | Ki [1] [nM] | Ki [2] [nM] | inhibition at 10 µM [3] [%] | % INHIBITION +/− SEM (inhibition of allodynia) [4]
Fc1cc(F)cc(-c2ccccc2CO[C@H]2CCNC2)c1 [Example A-17, (S)-3-(3′,5′-Difluoro-biphenyl-2-ylmethoxy)-pyrrolidine hydrochloride] | 15.1 | 93.5 | ≤ 21 | 
Fc1ccc(-c2ccccc2CO[C@H]2CCNC2)c(F)c1 [Example A-1, (S)-3-(2′,4′-Difluoro-biphenyl-2-ylmethoxy)-pyrrolidine fumarate] | 103 | 10.9 |  | 40.90 +/− 10.2%
FC(F)(F)c1cccc(-c2ccccc2CO[C@H]2CCNC2)c1 [Example A-18, (S)-3-(3′-Trifluoromethyl-biphenyl-2-ylmethoxy)-pyrrolidine hydrochloride] | 13 | 103 | ≤ 21 | 
Fc1ccc(-c2ccccc2F)c(CO[C@H]2CCNC2)c1 [Example A-9, (S)-3-(4,2′-Difluoro-biphenyl-2-ylmethoxy)-pyrrolidine fumarate] | 174 | 17.7 |  | 
Cl.Fc1ccc(-c2cccc(F)c2F)c(CO[C@H]2CCNC2)c1 [Example A-4, (S)-3-(4,2′,3′-Trifluoro-biphenyl-2-ylmethoxy)-pyrrolidine hydrochloride] | 139 | 11.2 |  | 30.20 +/− 1.8%
c1ccc(-c2ccccc2CO[C@@H]2CCNC2)cc1 [Example A-14, (R)-3-(Biphenyl-2-ylmethoxy)-pyrrolidine hydrochloride] | 204 | 67.5 |  | 
Fc1cccc(-c2ccccc2CO[C@H]2CCNC2)c1F.O=C(O)/C=C/C(=O)O [Example A-6, (S)-3-(2′,3′-Difluoro-biphenyl-2-ylmethoxy)-pyrrolidine fumarate] | 65.6 | 12.9 |  | 66.20 +/− 7.8%
c1ccc(-c2ccncc2)c(CO[C@H]2CCNC2)c1 [Example A-28, (S)-4-[2-(Pyrrolidin-3-yloxymethyl)-phenyl]-pyridine hydrochloride] | 1760 | 4860 |  | 
Fc1cc(CO[C@H]2CCNC2)c(-c2cccc(F)c2F)cc1F [Example A-31, (3S)-3-[(2′,3′,4,5-tetrafluorobiphenyl-2-yl)methoxy]pyrrolidine fumarate] | 142 | 46.3 |  | 
Fc1ccc(-c2ccc(F)cc2CO[C@H]2CCNC2)c(F)c1.O=C(O)/C=C/C(=O)O [Example A-3, (S)-3-(4,2′,4′-Trifluoro-biphenyl-2-ylmethoxy)-pyrrolidine fumarate] | 134 | 10.8 |  | 17.40 +/− 9.9%
